Test results: patent US20240024395A1 (priority 2020, published 2024)

What was measured:
[1] = test system: mycotoxicosis due to DON ingestion; design: Stomach ulcer: key to the marks not given beside the values; settings: pig, in vivo
[2] = pig, in vivo, 0.05 mg/kg

SMILES: CC1=C[C@H]2O[C@@H]3[C@H](O)C[C@](C)([C@@]2(CO)[C@H](O)C1=O)[C@]31CO1 [DON, deoxynivalenol]
- ADG1 average daily weight gain over the first 15 days of the challenge [1]: 0.54
- ADG average daily weight gain over the last 13 days of the challenge [1]: 0.81
- Kidneys [1]: Pail
- Liver colour [1]: Pail
- Stomach inflammation [1]: ++/−
- Stomach ulcer [1]: ++
- villus/crypt ratio, average [1]: 1.09
- weight begin ([1]; po, 5.4 mg/kg): 12.69
- weight end ([1]; po, 5.4 mg/kg): 31.75
- AUC0→∞ of unbound DON [2]: 187 ± 33
- Cmax of unbound DON [2]: 30.8 ± 2.5
